In PubChem BioAssay (NCI):
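Here, GI50 denotes the concentration required for 50% inhibition of growth. At the TGI there is no net growth.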

How the values were obtained:
Experiment in all cases: NCI-60 cell line screen, 384-well format
SN12C renal = test system: SN12C renal
HCT-116 colon = test system: HCT-116 colon
MALME-3M melanoma = test system: MALME-3M melanoma
OVCAR-5 ovarian = test system: OVCAR-5 ovarian
IGROV1 ovarian = test system: IGROV1 ovarian
M14 melanoma = test system: M14 melanoma
NCI/ADR-RES ovarian = test system: NCI/ADR-RES ovarian
MDA-MB-468 breast = test system: MDA-MB-468 breast
HOP-92 NSCLC = test system: HOP-92 NSCLC
MOLT-4 leukemia = test system: MOLT-4 leukemia
A549 NSCLC = test system: A549 NSCLC
T-47D breast = test system: T-47D breast
LOX IMVI melanoma = test system: LOX IMVI melanoma
RXF 393 renal = test system: RXF 393 renal
NCI-H522 lung = test system: NCI-H522 lung
KM12 colon = test system: KM12 colon
HS 578T breast = test system: HS 578T breast
BT-549 breast = test system: BT-549 breast
K-562 leukemia = test system: K-562 leukemia
MCF7 breast = test system: MCF7 breast
CCRF-CEM leukemia = test system: CCRF-CEM leukemia
HT29 colon = test system: HT29 colon
SF-539 CNS = test system: SF-539 CNS
HCT-15 colon = test system: HCT-15 colon
HOP-62 NSCLC = test system: HOP-62 NSCLC
HL-60(TB) leukemia = test system: HL-60(TB) leukemia
NCI-H460 NSCLC = test system: NCI-H460 NSCLC
NCI-H23 lung = test system: NCI-H23 lung
OVCAR-4 ovarian = test system: OVCAR-4 ovarian
SW-620 colon = test system: SW-620 colon
NCI-H322M lung = test system: NCI-H322M lung
NCI-H226 lung = test system: NCI-H226 lung
PC-3 prostate = test system: PC-3 prostate
TK-10 renal = test system: TK-10 renal
HCC-2998 colon = test system: HCC-2998 colon
MDA-MB-435 melanoma = test system: MDA-MB-435 melanoma
UACC-62 melanoma = test system: UACC-62 melanoma
SNB-75 CNS = test system: SNB-75 CNS
OVCAR-8 ovarian = test system: OVCAR-8 ovarian
786-0 renal = test system: 786-0 renal
SK-MEL-5 melanoma = test system: SK-MEL-5 melanoma
CAKI-1 renal = test system: CAKI-1 renal
SF-295 CNS = test system: SF-295 CNS
U251 glioblastoma = test system: U251 glioblastoma
SK-OV-3 ovarian = test system: SK-OV-3 ovarian
RPMI-8226 leukemia = test system: RPMI-8226 leukemia
SF-268 CNS = test system: SF-268 CNS
OVCAR-3 ovarian = test system: OVCAR-3 ovarian
MDA-MB-231 breast = test system: MDA-MB-231 breast
SK-MEL-28 melanoma = test system: SK-MEL-28 melanoma
COLO 205 colon = test system: COLO 205 colon
SNB-19 CNS = test system: SNB-19 CNS
UO-31 renal = test system: UO-31 renal
DU-145 prostate = test system: DU-145 prostate
A498 renal = test system: A498 renal
ACHN renal = test system: ACHN renal
EKVX NSCLC = test system: EKVX NSCLC
UACC-257 melanoma = test system: UACC-257 melanoma

## CC(=O)N1CCN(CCOc2ccc(C3CCN(C4=Nn5c(nnc5C(F)(F)F)CC4)CC3)cc2)CC1
SN12C renal
  GI50: 22.5 µM
  TGI: > 100 µM
HCT-116 colon
  GI50: 13.4 µM
  TGI: > 100 µM
MALME-3M melanoma
  GI50: 11.6 µM
  TGI: 75.2 µM
OVCAR-5 ovarian
  GI50: 15.1 µM
  TGI: > 100 µM
IGROV1 ovarian
  GI50: 6.07 µM
  TGI: 54.1 µM
M14 melanoma
  GI50: 10.9 µM
  TGI: > 100 µM
NCI/ADR-RES ovarian
  GI50: 24.1 µM
  TGI: 75.6 µM
MDA-MB-468 breast
  GI50: 1.72 µM
  TGI: 10 µM
HOP-92 NSCLC
  GI50: 14.5 µM
  TGI: > 100 µM
MOLT-4 leukemia
  GI50: 4.72 µM
  TGI: 21.4 µM
A549 NSCLC
  GI50: 14.2 µM
  TGI: > 100 µM
T-47D breast
  GI50: 1.16 µM
  TGI: 7.99 µM
LOX IMVI melanoma
  GI50: 3.75 µM
  TGI: 17.9 µM
RXF 393 renal
  GI50: 5.97 µM
  TGI: 27.5 µM
NCI-H522 lung
  GI50: 2.9 µM
  TGI: 20.1 µM
KM12 colon
  GI50: 12 µM
  TGI: > 100 µM
HS 578T breast
  GI50: 4.78 µM
  TGI: 31.2 µM
BT-549 breast
  GI50: 5.94 µM
  TGI: 39.8 µM
K-562 leukemia
  GI50: 3.66 µM
  TGI: > 100 µM
MCF7 breast
  GI50: 3.42 µM
  TGI: 83.1 µM
CCRF-CEM leukemia
  GI50: 4.06 µM
  TGI: 19.3 µM
HT29 colon
  GI50: 10.4 µM
  TGI: > 100 µM
SF-539 CNS
  GI50: 13.5 µM
  TGI: > 100 µM
HCT-15 colon
  GI50: 18.1 µM
  TGI: > 100 µM
HOP-62 NSCLC
  GI50: 4.71 µM
  TGI: 25.9 µM
HL-60(TB) leukemia
  GI50: 3.79 µM
  TGI: 14.7 µM
NCI-H460 NSCLC
  GI50: 13.3 µM
  TGI: 36.6 µM
NCI-H23 lung
  GI50: 8.08 µM
  TGI: > 100 µM
OVCAR-4 ovarian
  GI50: 11.8 µM
  TGI: 71.7 µM
SW-620 colon
  GI50: > 100 µM
  TGI: > 100 µM
NCI-H322M lung
  GI50: 13 µM
  TGI: > 100 µM
NCI-H226 lung
  GI50: 15 µM
  TGI: > 100 µM
PC-3 prostate
  GI50: 9.08 µM
  TGI: > 100 µM
TK-10 renal
  GI50: 20.9 µM
  TGI: > 100 µM
HCC-2998 colon
  GI50: 6.17 µM
  TGI: 24.2 µM
MDA-MB-435 melanoma
  GI50: 32.8 µM
  TGI: > 100 µM
UACC-62 melanoma
  GI50: 4.27 µM
  TGI: 88.8 µM
SNB-75 CNS
  GI50: 8.08 µM
  TGI: 76.5 µM
OVCAR-8 ovarian
  GI50: 12.3 µM
  TGI: 60 µM
786-0 renal
  GI50: 8.6 µM
  TGI: 69.3 µM
SK-MEL-5 melanoma
  GI50: 4.83 µM
  TGI: 19.7 µM
CAKI-1 renal
  GI50: 3.53 µM
  TGI: > 100 µM
SF-295 CNS
  GI50: 23.6 µM
  TGI: > 100 µM
U251 glioblastoma
  GI50: 16.5 µM
  TGI: 67.3 µM
SK-OV-3 ovarian
  GI50: 6.93 µM
  TGI: 31.8 µM
RPMI-8226 leukemia
  GI50: 3.34 µM
  TGI: 13.4 µM
SF-268 CNS
  GI50: 2.83 µM
  TGI: 12.7 µM
OVCAR-3 ovarian
  GI50: 7.08 µM
  TGI: 35.3 µM
MDA-MB-231 breast
  GI50: 5.58 µM
  TGI: > 100 µM
SK-MEL-28 melanoma
  GI50: 24.2 µM
  TGI: > 100 µM
COLO 205 colon
  GI50: 15.2 µM
  TGI: > 100 µM
SNB-19 CNS
  GI50: 17.9 µM
  TGI: 83.4 µM
UO-31 renal
  GI50: 22.9 µM
  TGI: > 100 µM
DU-145 prostate
  GI50: 32 µM
  TGI: > 100 µM
A498 renal
  GI50: 14.7 µM
  TGI: 77.2 µM
ACHN renal
  GI50: 15.3 µM
  TGI: 62.8 µM
EKVX NSCLC
  GI50: 16.8 µM
  TGI: > 100 µM
UACC-257 melanoma
  GI50: 4.87 µM
  TGI: 26.2 µM
